The assay in a line: Reduction of body weight with harmine in mice (intraperitoneal injection, 4 weeks). Type of assay: in vivo. As to conditions: intraperitoneal in saline, 4 weeks (30 days), initial body weight 30 g. On the procedure: In order to determine the effect of harmine and harmine derivatives in reducing body weight, we administered harmine to mice and tracked their body weights for 4 weeks (30 days). Harmine was solublized in saline and administered via intraperitoneal injection. Animals were weighed weekly.
Mice (6 per group) were divided into seven groups and given one of the following treatments: • 1. 5 mg harmine/kg body weight (Low) • 2. 10 mg harmine/kg body weight (Med) • 3. 20 mg harmine/kg body weight (High) • 4. Saline • 5. 3 mg/kg body weight (Positive control 2) • 6. 5 mg/kg body weight (Positive control low) • 7. 10 mg/kg body weight (Positive control high)
Even at the low dose, the animals lost more than 5% of their body weight.

`COc1ccc2c(c1)[nH]c1c(C)nccc12` [harmine]: the “reduction in body weight” value (highest dose 20 mg harmine/kg body weight) is reported as 6% and the “reduction in body weight” value (low dose 5 mg harmine/kg body weight) is “more than 5%”.
